Experiment: Pharmacokinetics after single inhaled dose (LC-MS/MS)
Assay type: in vivo, human
Procedure: Blood samples were obtained at 1; 2; 4; 7; 10; 15; 20; 30; 45 min and 1; 1.5; 2; 3; 4 hours after administration.
PK parameters were generated by algebraic analysis of the concentration versus time plots for each individual. The analysis was carried out using the software Phoenix WinNonlin 6.3.

## CN(C)CCc1c[nH]c2ccc(O)cc12 [bufotenine]
After inhaled 5-MeO-DMT, LLOQ 25 pg/ml
  Samples with bufotenine concentration above LLOQ: Only in few samples
Subjects receiving an uptitration scheme included
  Bufotenine blood concentrations under uptitration scheme vs single dose: Substantially similar observations

Source: patent US20250213532A1, “5-METHOXY-N,N-[…][…] THE TREATMENT OF BIPOLAR DISORDER” (GH RESEARCH IRELAND LIMITED, priority 2022, published 2025)
